From a melting point compilation (Tetko et al.; mined from patent text by program, amines drawn as free bases though some values may be those of a salt)

Row | Structure (SMILES) | melting point
1 | CCCc1c(OCC(O)CS(=O)(=O)c2ccc(CC(=O)O)c(Cl)c2Cl)ccc(C(C)=O)c1O (centres undefined) | 181 to 183 °C
2 | CCC(=C(c1ccccc1)c1ccc(C=CC(=O)N(CC)CC)cc1)c1ccccc1 | 138 to 140 °C
3 | COc1cc(O)c2c(c1O)C1C=CC2C1 (centres undefined) | 151 to 153 °C
4 | Cn1cc(C2=C(c3cn(C)c4c([N+](=O)[O-])cccc34)C(=O)NC2=O)c2ccc(F)cc21 | 259 to 261 °C
5 | O=C1O[C@@H](Cn2ccnn2)CN1c1ccc(-c2ccc(C3=NOC(C(O)c4ccccc4)C3)nc2)c(F)c1 (some centres undefined) | 182 °C
6 | C=CCN1CCc2c([nH]c3ccccc23)C(C(=O)OC)C1 (centres undefined) | 105 to 108 °C
7 | COc1ccc(N(C(=O)c2c3ccccc3nc3ccccc23)S(=O)(=O)c2ccc(CCC(=O)ON3C(=O)CCC3=O)cc2)c(OC)c1 | 105 °C
8 | CCOC(=O)CNC(=O)CCc1cc(Cl)ccc1C(=O)CCCNC(=O)CCCNC(C)=O | 94 to 96 °C
9 | CCCN(CCCN1CCN(c2cccc(Cl)c2Cl)CC1)C1CCc2ncsc2C1 (centres undefined) | 110 °C
10 | CC(C)[C@@H]1C[C@@H]([C@H](CC2CCCCC2)NC(=O)OC(C)(C)C)OC1=O | 114 to 116 °C
11 | CC(C)[C@H](NC(=O)OCc1csc(N2CCCC2)n1)C(=O)N[C@@H](Cc1ccccc1)[C@@H](O)C[C@H](Cc1ccccc1)NC(=O)OCc1cncs1 | 165 to 167 °C
12 | N#Cc1ccc(OCCCCCCOc2cccc(-c3cc4ccc(C#N)cc4o3)c2)cc1 | 125 to 127 °C
13 | CSc1ncncc1C1c2cc(NS(=O)(=O)c3ccccc3)ccc2CC1(C)C (centres undefined) | 174 to 176 °C
14 | CCCc1cc(Nc2ccn(-c3ccccc3)n2)cc(CCC)c1OC(C)=O | 71 to 74 °C
15 | CCCCCP(=O)(O)CCCN | 232 to 236 °C
16 | CCCC(CCC)n1c(CC)nc2[nH]c(=O)n(C)c(=O)c21 | 152 to 153 °C
17 | O=C1CC(c2c(Cl)cccc2Cl)CN1 (centres undefined) | 153 to 154 °C

Row | Structure (SMILES) | melting point
18 | O=C(O)c1ccc2c(c1)CCC(CCN1CCC(c3ccccc3)CC1)C2=O (centres undefined) | 118 to 120 °C
19 | ClC12CC3CC(CC(C3)C1=C1C3CC4CC(C3)CC1C4)C2 | 142 to 143 °C
20 | O=C(N[C@H](Cc1ccc(C(F)(F)F)cc1)[C@@H](O)c1ccc(F)cc1)c1ccc2ccccc2c1 (racemic) | 174 to 175 °C
21 | CCCc1nc2c(N)nc3cc(Oc4ccc(C#N)cc4)ccc3c2n1CC(C)C | 223 to 225 °C
22 | O=Cc1cccc2c(Br)c3ccccc3cc12 | 134 to 136 °C
23 | CCOc1cccc(Cn2ncc3c(N4CCN(C(=O)OC(C)(C)C)CC4)ncnc32)n1 | 130 to 132 °C
24 | Cn1nc(N)c(C#N)c1N | 194 °C
25 | COC(=O)C(Cc1ccc(OCC(=O)Nc2ccc(Oc3ccc(C45CC6CC(CC(C6)C4)C5)cc3)cc2N(C)C(=O)OC(C)(C)C)cc1)OCc1ccc(F)cc1 (centres undefined) | 52 to 56 °C
26 | CS(=O)(=O)c1ccc(S(=O)(=O)N2CCCC(c3ccc(Cl)c(Cl)c3)=N2)cc1 | 181 to 183 °C
27 | CCCCCCCCc1ncc(-c2ccc(OC(=O)[C@H]3CCCO3)cc2)cn1 | 68 °C
28 | OC(CNC1CCC1)c1cc(C(F)(F)F)nc2c(C(F)(F)F)cccc12 (centres undefined) | 145 °C
29 | COC(=O)C(Oc1ccc(Cl)cc1)c1ccc(Oc2ccccc2)cc1 (centres undefined) | 99 to 102 °C
30 | CCOC(=O)c1ccc(NC(=O)C=C(c2ccc(Br)cc2)c2ccc(Br)cc2)cc1 | 207 to 208 °C
31 | NCc1ccc2c(c1)c(C1CCN(CCN3CCNC3=O)CC1)cn2-c1ccc(F)cc1 | 171 to 175 °C
32 | O=C(O)CCCCCCCCCCC(=O)Nc1ccccc1OCCCC(=O)O | 128 to 130 °C
33 | NC(=O)c1sc2nc(N3CCC(NCC(O)c4ccncc4)CC3)cc(C(F)(F)F)c2c1N (centres undefined) | 217 to 220 °C

The remaining lines, values ahead:

Row | melting point | Structure (SMILES)
34 | 214 to 216 °C | Cc1[nH]c(=O)[nH]c1C(=O)c1ccco1
35 | 120 to 122 °C | CS(=O)(=O)Nc1ccc(C(=O)CC(=O)C2CC2)c(Cl)c1
36 | 230 to 232 °C | Cc1cccc([N+](=O)[O-])c1C(=O)Nc1nnn[nH]1
37 | 181 to 182 °C | NC(=O)N(O)CCNC(=O)c1cc2ccccc2o1
38 | 144 to 145 °C | C/C(Cn1oc(=O)[nH]c1=O)=C(\C)c1cccc(OCc2nc(-c3ccc(C(F)(F)F)cc3)oc2C)c1
39 | 156 to 158 °C | O=C1N(N2CCCCC2)c2ccccc2C1(O)Cc1ccncc1 (centres undefined)
40 | 78 to 80 °C | CCN(CC)Cc1csc(N)c1C(=O)c1ccc(Cl)cc1
41 | 222 °C | Cc1ccc2c(=O)nc(-c3cccc(CCC(=O)O)n3)sc2c1
42 | 138 to 142 °C | Cc1nc(NCC(C)C)sc1C(=O)c1ccc(Cl)c([N+](=O)[O-])c1
43 | 300 to 301 °C | Cn1cc(S(C)(=O)=O)c(=O)c2ccc(C(F)(F)F)cc21
44 | 139 °C | O=C1CN[C@@H](c2ccccc2)[C@@H](c2ccccc2)O1
45 | 185 to 187 °C | COc1c(C)c(C)c2c(c1C)C(C(=O)O)C(C)(C)O2 (centres undefined)
46 | 112 to 114 °C | CNS(=O)(=O)c1cc(C(=O)CCC(=O)OC)ccc1Cl
47 | 214 °C | Cc1[nH]c(-c2ccccc2)nc1C(O)C(C)C (centres undefined)
48 | 80 to 81 °C | CCC(=O)Cc1cc(OC)ccc1NC(=O)OC(C)(C)C
49 | 114 to 117 °C | COc1cc([N+](=O)[O-])ccc1-c1cnc(C)s1
